Laboratory results: ChEMBL document CHEMBL1147328, “13C-NMR assignments and cytotoxicity assessment of zoanthoxanthin alkaloids from zoanthid corals” (J Nat Prod, 1993)
Values after ≈ are worked out from the molar mass of the structure shown.

How the values were obtained:
Type in all cases: functional, cell-based
HCT-8 = test: Cytotoxicity against human HCT8 cells
A549 = test: Cytotoxicity against human A549 cells
HT-29 = test: Cytotoxicity against human HT-29 cells
P388 = test: Cytotoxicity against mouse P388 cells

## CNc1nc2c(C)ccc3nc(N(C)C)nc-3c2n1C
HCT-8
  IC50: 1.61 µg/mL (≈ 5.96 µM)
A549
  IC50: 2.38 µg/mL (≈ 8.8 µM)
HT-29
  IC50: 0.824 µg/mL (≈ 3.05 µM)
P388
  IC50: 1.77 µg/mL (≈ 6.55 µM)
